We go through 10 molecules from US10166226B2, “CGRP receptor antagonists” (Heptares Therapeutics Limited, priority 2015, dated 2019).

Data set [1] addresses Human CGRP receptors (consisting of CRLR and RAMP1) (Homo sapiens (Human), UniProt O60894+Q16602). The data set is described as follows: Radioligand binding assay (3H-telcagepant displacement). The note with it: Sf21 cell membranes, 0.5 nM 3H-telcagepant, Ki by Cheng-Prussoff. As to the method:
Human Calcitonin Receptor Like Receptor (CRLR) and human RAMP1 were cloned into Invitrogen's (ThermoFisher Scientific, UK) pFastBac dual expression vector. Transposition of CRLR/RAMP1 DNA was performed using Invitrogen's Bac-to-Bac Baculovirus Expression Systems. P0 baculovirus was generated by transfecting SF9 cells with bacmid DNA using Cellfectin® II transfection reagent (ThermoFisher Scientific, UK, catalog number 10362-100). Following P0 generation P1 virus was then generated ready for large scale infection and membrane preparation. Sf21 cells were grown in expression medium ESF921 (Expression Systems, USA, catalog number 96-001-01) supplemented with 10% heat-inactivated FBS and 1% Pen/Strep and were infected at a cell density of 2.5×10^6 cells/mL and an MOI of 2. Expression was carried out over 48 h in a shaking incubator set at 27° C. The cell culture was centrifuged at 2,500 rcf for 10 min at 4° C. The pellets were resuspended in cold PBS supplemented with Roche's Complete EDTA-free protease inhibitor cocktail tablets (Roche Applied Sciences, catalog number 05056489001), 1 mM PMSF and 1 mM EDTA. The resuspended cell paste was then centrifuged at 3,273 rcf for 12 min at 4° C. The supernatant was discarded and the pellet frozen at −80° C. The cell pellet from a 4 L culture was resuspended in buffer containing 50 mM Hepes pH 7.5, 150 mM NaCl, 8 Roche EDTA-free protease inhibitor cocktail tablets and 1 mM PMSF. The suspension was left stirring at rt for 1 h and then homogenised for 90 s at 9,500 rpm using a VDI 25 (VWR, USA) homogeniser. The cells were then lysed using a Microfluidizer processor M-110L Pneumatic (Microfluidics, USA). After lysis, the mixture was homogenised for 90 s at 9,500 rpm and then centrifuged at 335 rcf for 10 min. The supernatant was then further ultra-centrifuged at 42,000 rpm for 90 min. After ultra-centrifugation, the supernatant was discarded and the pellet was resuspended in 50 mL (25 mL for each 2 L culture) of buffer containing 50 mM Hepes pH 7.5, 150 mM NaCl, 3 Roche EDTA-free protease inhibitor cocktail tablets and 1 mM PMSF. The suspension was then homogenised for 90 s at 9,500 rpm. The resulting membranes were then stored at −80° C.
Human CGRP receptors (consisting of CRLR and RAMP1) expressed in insect Sf21 cell membrane homogenates were re-suspended in the binding buffer (10 mM HEPES, pH 7.4, 5 mM MgCl2, 0.2% BSA) to a final assay concentration of […]. Saturation isotherms were determined by the addition of various concentrations of ^3H-telcagepant (Ho et al, The Lancet, 2008, 372, 2115) (in a total reaction volume of 250 μL) for 60 min at room temperature. At the end of the incubation, membranes were filtered onto a unifilter, a 96-well white microplate with bonded GF/B filter pre-incubated with 0.5% PEI, with a Tomtec cell harvester and washed 5 times with distilled water. Non-specific binding (NSB) was measured in the presence of 10 nM MK-3207 hydrochloride (CAS No. 957116-20-0). Radioactivity on the filter was counted (1 min) on a microbeta counter after addition of 50 μL of scintillation fluid.

Another data set addresses human CGRP receptor (Homo sapiens (Human), UniProt O60894+Q16602). The data set is described as follows: cAMP functional assay (HTRF) in SK-N-MC cells. The class given is cell-based. The note with it: read-out: pKb average (converted). How it is done: cAMP production following receptor activation was determined using the Homogeneous Time-Resolved Fluorescence (HTRF) cAMP dynamic-2 assay (Cisbio, France). The human neuroblastoma cell line SK-N-MC endogenously expressing the human CGRP receptor was seeded at a density of 12,500 cells/well in solid walled 96 well half area plates (Costar, Catalog Number 3688, Corning Life Sciences, Germany). After 16 h incubation at 37° C. media was removed and cells were incubated at 37° C. for 30 min in serum free media containing 500 μM IBMX (Tocris, Abingdon, UK, Catalog Number 2845) and increasing concentrations of test antagonist. Following this cells were challenged with an EC80 concentration of human CGRP (0.3 nM) for a further 30 min at 37° C. and then cAMP production was determined as manufacturer's instructions before plates were read on a PheraStar fluorescence plate reader (BMG LabTech, Germany). IC50 values were derived from the inhibition curve. The pIC50 values (where pIC50=−log10 IC50) were converted to a functional pKb value using a modified Cheng-Prussoff equation where Kd=agonist EC50 and L hot=agonist challenge concentration. The pKb values of certain compounds of the invention are detailed in Table 3.
For orientation: In TR-FRET formats the signal depends on donor and acceptor labels being close together.

Data set [2] in a line: Pharmacokinetic profiling in rat. The class given is in vivo, male Sprague Dawley rats. To be noted: male, Sprague Dawley, plasma.
Procedure: Prior to IN dosing rats were anaesthetised with an intramuscular dose of 25-30 mg/kg ketamine cocktail (ketamine, xylazine hydrochloride and acepromazine maleate in saline) and the dose is introduced over 20-30 s via a polyethylene PE-10 tube inserted approximately 5 mm into the nasal cavity of the rat.
(§1) Following dosing by the routes above blood samples were taken at several time points (typically pre-dose, 0.083, 0.25, 0.5 1, 2, 4, 8 and 24 h) via serial tail vein bleeds (rat) or cephalic or saphenous vein (monkey) from the animal and centrifuged to separate plasma for analysis by LC/MS/MS assay. WinNonlin v6.2 statistics software (Pharsight Corporation, California, USA) was used to generate pharmacokinetic parameters using the non-compartmental model.
Data set [3] can be described thus: Pharmacokinetic profiling in cynomolgus monkey. The class given is in vivo, male Cynomolgus Monkeys. To be noted: male, plasma, 0.5 mg/kg, acidified saline; for clearance: cynomolgus monkey iv; for bioavailability: cynomolgus monkey sc.
Procedure: as §1
The nature of data set [4]: Thermodynamic solubility profiling. It counts as physicochemical. To be noted: aqueous buffer, thermodynamic from solid. As to the method: A 50 mM DMSO stock solution of test compound was prepared, and from this, a working solution of 1 mM was prepared by dilution with DMSO. The UV absorbance of working solution was scanned from 220 nm to 1000 nm to identify the wavelength maxima of test compound. The 1 mM working solution was then serially diluted in DMSO to different concentrations to determine linearity/calibration curve. […] The resulting solution was then kept on a RotoSpin shaker at 50 rpm for 24 h at rt before the solution was filtered using 0.45 micron PVDF injector filters in order to remove the insoluble fraction of the compound. Subsequently, 150 uL of the filtrate is taken for quantification using a UV spectrophotometer, acquiring the optical density of standard solutions and test compound at the same wavelength maxima. From the optical density of test compound the thermodynamic solubility is calculated using the linearity/calibration curve and expressed as micromolar (μM). Solubility profiles of certain compounds of the invention are detailed in Table 6.

The mark [5] stands for this setting: PBS buffer pH 7.4, 24 h at rt, read-out: Thermodynamic solubility pH 7.4.
Where [6] appears, read: Sodium Phosphate Buffer pH 6.0, 24 h at rt, read-out: Thermodynamic solubility pH 6.

Values after ≈ are worked out from the molar mass of the structure shown. Like-named read-outs stand apart in the source and are kept apart here.

human CGRP receptor, sequence (Q16602 23-461): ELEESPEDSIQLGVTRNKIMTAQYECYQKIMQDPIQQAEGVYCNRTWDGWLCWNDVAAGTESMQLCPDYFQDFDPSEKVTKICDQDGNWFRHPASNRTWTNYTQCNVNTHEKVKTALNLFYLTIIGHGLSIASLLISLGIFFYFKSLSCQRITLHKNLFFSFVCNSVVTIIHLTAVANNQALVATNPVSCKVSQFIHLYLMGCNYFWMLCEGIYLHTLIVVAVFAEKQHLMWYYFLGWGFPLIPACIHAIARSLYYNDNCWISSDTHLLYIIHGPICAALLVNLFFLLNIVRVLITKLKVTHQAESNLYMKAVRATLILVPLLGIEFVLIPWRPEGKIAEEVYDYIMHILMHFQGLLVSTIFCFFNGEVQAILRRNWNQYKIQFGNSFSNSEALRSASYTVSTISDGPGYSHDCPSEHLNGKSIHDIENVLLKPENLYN
human CGRP receptor, sequence (O60894 27-148): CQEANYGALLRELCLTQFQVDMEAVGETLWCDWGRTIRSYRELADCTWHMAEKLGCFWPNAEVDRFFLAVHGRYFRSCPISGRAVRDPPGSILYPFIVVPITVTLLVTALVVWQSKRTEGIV
Human CGRP receptors (consisting of CRLR and RAMP1), sequence (Q16602 23-461): as the sequence (Q16602 23-461) above
Human CGRP receptors (consisting of CRLR and RAMP1), sequence (O60894 27-148): as the sequence (O60894 27-148) above

For `Cc1cc(C[C@@H](NC(=O)N2CCC(c3cc4ccccc4[nH]c3=O)CC2)C(=O)N2CCC(N3CCC(c4ncc[nH]4)CC3)CC2)cc2cn[nH]c12` [Example 1, N-[(2R)-1-[4-(1H-imidazol-2-yl)-1,4′-bipiperidin-1′-yl]-3-(7-methyl-1H-indazol-5-yl)-1-oxopropan-2-yl]-4-(2-oxo-1,2-dihydroquinolin-3-yl)piperidine-1-carboxamide], the pKi average in data set [1] came out at 10.3. In addition, the Kb on human CGRP receptor is 200 pM.

Turning to `Cc1nc[nH]c1C1CCN(C2CCN(C(=O)[C@@H](Cc3cc(C)c4[nH]ncc4c3)NC(=O)N3CCC(c4cc5ccccc5[nH]c4=O)CC3)CC2)CC1` [Example 2, N-[(2R)-1-[4-(4-methyl-1H-imidazol-5-yl)-1,4′-bipiperidin-1′-yl]-3-(7-methyl-1H-indazol-5-yl)-1-oxopropan-2-yl]-4-(2-oxo-1,2-dihydroquinolin-3-yl)piperidine-1-carboxamide], the pKi average in data set [1] was found to be 10.1. Also, at human CGRP receptor, the Kb was 316 pM. Moreover, the bioavailability is 25% in data set [2] (inhaled or intranasal), 69% in data set [2] (sc) and 100% in data set [3]. Further, the clearance in data set [3] was 24 mL/min/kg. Further, the results for the solubility (thermodynamic) at 24 h in data set [4] (setting [5]) and in data set [4] (setting [6]) were 18 µM (≈ 12.7 µg/mL) and 2040 µM (≈ 1440 µg/mL), respectively.

In data set [1], `CCCn1ccnc1C1CCN(C2CCN(C(=O)[C@@H](Cc3cc(C)c4[nH]ncc4c3)NC(=O)N3CCC(c4cc5ccccc5[nH]c4=O)CC3)CC2)CC1` [Example 3, N-{(2R)-3-(7-methyl-1H-indazol-5-yl)-1-oxo-1-[4-(1-propyl-1H-imidazol-2-yl)-1,4′-bipiperidin-1′-yl]propan-2-yl}-4-(2-oxo-1,2-dihydroquinolin-3-yl)piperidine-1-carboxamide] had a pKi average of 9.8. The Kb on human CGRP receptor is 398 pM. Moreover, the values for the solubility (thermodynamic) at 24 h in data set [4] (setting [5]) and in data set [4] (setting [6]) were 2 µM (≈ 1.46 µg/mL) and 1250 µM (≈ 914 µg/mL), respectively.

Consider `Cc1cc(C[C@@H](NC(=O)N2CCC(c3cc4ccccc4[nH]c3=O)CC2)C(=O)N2CCC(N3CCC(c4nncn4C)CC3)CC2)cc2cn[nH]c12` [Example 4, N-{(2R)-3-(7-methyl-1H-indazol-5-yl)-1-[4-(4-methyl-4H-1,2,4-triazol-3-yl)-1,4′-bipiperidin-1′-yl]-1-oxopropan-2-yl}-4-(2-oxo-1,2-dihydroquinolin-3-yl)piperidine-1-carboxamide], for which the pKi average in data set [1] came to 10.0. For the same molecule, on human CGRP receptor, the Kb is 631 pM. The values for the bioavailability in data set [2] (inhaled or intranasal), in data set [2] (sc) and in data set [3] were 27%, 82% and 100%, respectively. In data set [3], this molecule came in with a clearance of 15 mL/min/kg. The thermodynamic solubility at 24 h in data set [4] (setting [5]) is 32 µM (≈ 22.6 µg/mL); in data set [4] (setting [6]), 1590 µM (≈ 1120 µg/mL).

In the case of `Cc1cc(C[C@@H](NC(=O)N2CCC(c3cc4ccc(F)cc4[nH]c3=O)CC2)C(=O)N2CCC(N3CCC(c4nncn4C)CC3)CC2)cc2cn[nH]c12` [Example 5, 4-(7-fluoro-2-oxo-1,2-dihydroquinolin-3-yl)-N-{(2R)-3-(7-methyl-1H-indazol-5-yl)-1-[4-(4-methyl-4H-1,2,4-triazol-3-yl)-1,4′-bipiperidin-1′-yl]-1-oxopropan-2-yl}piperidine-1-carboxamide], the pKi average in data set [1] was determined as 9.9. The Kb on human CGRP receptor was 631 pM. Also, the values for the solubility (thermodynamic) at 24 h in data set [4] (setting [5]) and in data set [4] (setting [6]) were 239 µM (≈ 173 µg/mL) and 1540 µM (≈ 1110 µg/mL), respectively.

In data set [1], `CCOC(=O)c1nnc(C2CCN(C3CCN(C(=O)[C@@H](Cc4cc(C)c5[nH]ncc5c4)NC(=O)N4CCC(c5cc6ccccc6[nH]c5=O)CC4)CC3)CC2)[nH]1` [Example 6, ethyl 5-{1′-[(2R)-3-(7-methyl-1H-indazol-5-yl)-2-({[4-(2-oxo-1,2-dihydroquinolin-3-yl)piperidin-1-yl]carbonyl}amino)propanoyl]-1,4′-bipiperidin-4-yl}-4H-1,2,4-triazole-3-carboxylate] registered a pKi average of 10.2. Also, at human CGRP receptor, the Kb is 200 pM.

On to `Cc1cc(C[C@@H](NC(=O)N2CCC(c3cc4ccccc4[nH]c3=O)CC2)C(=O)N2CCC(N3CCC(c4nnc[nH]4)CC3)CC2)cc2cn[nH]c12` [Example 7, N-{(2R)-3-(7-methyl-1H-indazol-5-yl)-1-oxo-1-[4-(4H-1,2,4-triazol-3-yl)-1,4′-bipiperidin-1′-yl]propan-2-yl}-4-(2-oxo-1,2-dihydroquinolin-3-yl)piperidine-1-carboxamide], for which the pKi average in data set [1] was determined as 9.8. The Kb at human CGRP receptor was 316 pM. In addition, the solubility (thermodynamic) at 24 h in data set [4] (setting [5]) worked out at 342 µM (≈ 236 µg/mL); in data set [4] (setting [6]), 785 µM (≈ 542 µg/mL).

Turning to `Cc1nnc(C2CCN(C3CCN(C(=O)[C@@H](Cc4cc(C)c5[nH]ncc5c4)NC(=O)N4CCC(c5cc6ccccc6[nH]c5=O)CC4)CC3)CC2)[nH]1` [Example 8, N-{(2R)-3-(7-methyl-1H-indazol-5-yl)-1-[4-(5-methyl-4H-1,2,4-triazol-3-yl)-1,4′-bipiperidin-1′-yl]-1-oxopropan-2-yl}-4-(2-oxo-1,2-dihydroquinolin-3-yl)piperidine-1-carboxamide], the pKi average in data set [1] worked out at 10.0. The Kb at human CGRP receptor was 316 pM. Also, the solubility (thermodynamic) at 24 h was 359 µM (≈ 253 µg/mL) in data set [4] (setting [5]) and 1220 µM (≈ 858 µg/mL) in data set [4] (setting [6]).

On to `Cc1cc(C[C@@H](NC(=O)N2CCC(c3cc4ccccc4[nH]c3=O)CC2)C(=O)N2CCC(N3CCC(c4nnc(C(=O)O)[nH]4)CC3)CC2)cc2cn[nH]c12` [Example 9, 5-{1′-[(2R)-3-(7-methyl-1H-indazol-5-yl)-2-({[4-(2-oxo-1,2-dihydroquinolin-3-yl)piperidin-1-yl]carbonyl}amino)propanoyl]-1,4′-bipiperidin-4-yl}-4H-1,2,4-triazole-3-carboxylic Acid], for which the pKi average in data set [1] is recorded as 10.3. Further, on human CGRP receptor, the Kb is 398 pM.

For the molecule `NCCCC[C@H](NC(=O)[C@@H](Cc1cc(Br)c(O)c(Br)c1)NC(=O)N1CCC(N2Cc3ccccc3NC2=O)CC1)C(=O)N1CCN(c2ccncc2)CC1` [olcegepant, reference compound], the bioavailability in data set [2] (inhaled or intranasal) came to 8%; in data set [2] (sc), 48%. For the same molecule, the solubility (thermodynamic) at 24 h in data set [4] (setting [5]) amounted to 431 µM (≈ 375 µg/mL); in data set [4] (setting [6]), 150 µM (≈ 130 µg/mL).

Broadly, the bioavailability is dose-corrected exposure relative to a reference, in per cent. Usually clearance stands for the volume of plasma or blood freed of the substance per unit of time. For orientation: solubility (thermodynamic) means solubility found after equilibrating the solid with the medium.
